The target of one assay is Cholinesterase (Homo sapiens, UniProt P06276). Description: Inhibition of human plasmatic BChE after 5 mins by Ellman's method. Set-up: species or system Plasma.
The target in assay [1] is T1, Acetylcholinesterase (Homo sapiens, UniProt P22303). As to the kind of experiment: Inhibition of human recombinant AChE after 5 mins by Ellman's method. For orientation: In Ellman's method for cholinesterases, released thiocholine reacts with DTNB.
Assay [2] addresses T1, Acetylcholinesterase. As to the kind of experiment: Inhibition of human recombinant AChE by Lineweaver-Burk plot analysis.
The target of assay [3] is T1, Acetylcholinesterase. Description: Non competitive inhibition of human recombinant AChE using ATChCl as substrate by Lineweaver-Burk plot analysis.

Our source for the IC50 and Ki values is ChEMBL document CHEMBL3091342, “Preparation, in vitro evaluation and molecular modelling of pyridinium-quinolinium/isoquinolinium non-symmetrical bisquaternary cholinesterase inhibitors” (Bioorg Med Chem Lett, 2013).

In general, IC50 refers to the concentration needed to halve the response being measured. As a reminder, the Ki is a dissociation constant, usually derived from enzyme kinetics or from competition with a known ligand.

T1 sequence (P22303 whole entry): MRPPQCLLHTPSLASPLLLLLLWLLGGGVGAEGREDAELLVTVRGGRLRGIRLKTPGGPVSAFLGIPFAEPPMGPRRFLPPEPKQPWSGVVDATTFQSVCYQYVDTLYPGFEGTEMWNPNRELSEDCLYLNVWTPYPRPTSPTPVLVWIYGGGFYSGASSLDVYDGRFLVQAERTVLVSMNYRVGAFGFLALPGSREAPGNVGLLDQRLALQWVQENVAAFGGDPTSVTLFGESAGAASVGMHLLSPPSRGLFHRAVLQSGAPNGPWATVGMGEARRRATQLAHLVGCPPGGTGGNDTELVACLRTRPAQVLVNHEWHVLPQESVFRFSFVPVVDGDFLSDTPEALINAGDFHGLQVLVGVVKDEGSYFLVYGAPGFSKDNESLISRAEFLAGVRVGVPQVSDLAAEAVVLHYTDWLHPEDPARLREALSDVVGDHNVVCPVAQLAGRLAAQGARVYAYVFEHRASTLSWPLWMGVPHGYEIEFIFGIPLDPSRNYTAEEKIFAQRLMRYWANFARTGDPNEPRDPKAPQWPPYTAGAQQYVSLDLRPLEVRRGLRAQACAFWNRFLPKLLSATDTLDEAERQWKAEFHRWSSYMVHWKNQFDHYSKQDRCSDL
Cholinesterase, sequence (P06276 whole entry): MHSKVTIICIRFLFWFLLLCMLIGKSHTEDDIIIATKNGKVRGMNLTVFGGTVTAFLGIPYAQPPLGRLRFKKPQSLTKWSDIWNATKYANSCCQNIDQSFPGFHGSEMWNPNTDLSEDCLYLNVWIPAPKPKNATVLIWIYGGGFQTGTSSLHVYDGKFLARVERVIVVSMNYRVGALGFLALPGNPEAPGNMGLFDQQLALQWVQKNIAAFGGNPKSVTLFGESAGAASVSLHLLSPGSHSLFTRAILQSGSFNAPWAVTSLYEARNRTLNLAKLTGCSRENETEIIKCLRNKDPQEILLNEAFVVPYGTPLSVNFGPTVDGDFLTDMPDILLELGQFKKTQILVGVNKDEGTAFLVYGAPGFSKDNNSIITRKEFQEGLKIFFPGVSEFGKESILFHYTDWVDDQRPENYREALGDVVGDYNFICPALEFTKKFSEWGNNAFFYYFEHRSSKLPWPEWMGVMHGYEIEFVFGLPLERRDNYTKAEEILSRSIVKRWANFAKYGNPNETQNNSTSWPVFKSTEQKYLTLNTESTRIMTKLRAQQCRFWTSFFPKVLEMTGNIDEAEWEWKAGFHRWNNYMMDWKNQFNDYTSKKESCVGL

For `c1cc[n+](CCCCCCC[n+]2cccc3ccccc32)cc1`, the IC50 came out at 2200 nM against Cholinesterase and 540 nM at Acetylcholinesterase [1].
Regarding `c1cc[n+](CCCCCCCCC[n+]2ccc3ccccc3c2)cc1`, the half-inhibitory concentration (IC50) against Cholinesterase amounted to 350 nM; at Acetylcholinesterase [1] it was 40 nM.
For `c1cc[n+](CCCCCCCCCCCC[n+]2cccc3ccccc32)cc1`, the Ki on Acetylcholinesterase [2] was found to be 20 nM; at Acetylcholinesterase [3] it was 10 nM. The IC50 against Cholinesterase was 680 nM; at Acetylcholinesterase [1], 4.7 nM.
For `c1cc[n+](CCCCCCCCCCC[n+]2ccc3ccccc3c2)cc1`, the IC50 was 700 nM at Cholinesterase and 30 nM on Acetylcholinesterase [1].
For the molecule `c1cc[n+](CCCCCCCCCCC[n+]2cccc3ccccc32)cc1`, the results for the IC50 against Cholinesterase and on Acetylcholinesterase [1] were 900 nM and 17 nM, respectively.
As to `c1cc[n+](CCCCCCCCC[n+]2cccc3ccccc32)cc1`, the IC50 against Cholinesterase was determined as 1700 nM; on Acetylcholinesterase [1], 120 nM.
`c1cc[n+](CCCCCCCC[n+]2ccc3ccccc3c2)cc1`: the IC50 against Cholinesterase stood at 7700 nM; on Acetylcholinesterase [1], 140 nM.
In the same order, the values of `c1cc[n+](CCCCCCC[n+]2ccc3ccccc3c2)cc1` are 1000 nM and 800 nM.
In the same order, the values of `c1cc[n+](CCCCCCCC[n+]2cccc3ccccc32)cc1` are 2000 nM and 270 nM.
With `c1cc[n+](CCCCCCCCCC[n+]2ccc3ccccc3c2)cc1`, the IC50 was found to be 370 nM on Cholinesterase and 20 nM at Acetylcholinesterase [1].
